Where a name gives a salt, the structure may show the parent alone.
Experiments:
[1] = tested on: HCoV-OC43; parameters: species or system RD; HTS, protection from HCoV-OC43 induced cell death, luminescent cell viability (CellCounting-Lite 2.0), inhibition rate; conditions: 24 h, 10 µM; inhibitor
[2] = tested on: HCoV-229E; parameters: species or system Huh-7; HTS, protection from HCoV-229E induced cell death, luminescent cell viability (CellCounting-Lite 2.0), inhibition rate; conditions: 24 h, 10 µM; inhibitor

| SMILES | OC43 Inhibition rate [1] | 229E Inhibition rate [2] |
| --- | --- | --- |
| O=C1C=C2C=C[C@@H]3C[C@@]2(O1)[C@H]1CCCCN31 [(-)-Securinine] | 38.4% | 43% |
| CC[C@@]1(O)C(=O)OCc2c1cc1n(c2=O)Cc2cc3cc(O)ccc3nc2-1 [(S)-10-Hydroxycamptothecin] | -0.8 | 18.7 |
| O=C1C=C2C=C[C@@H]3C[C@@]2(O1)[C@@H]1CCCCN31 [Allosecurinine] | 19.8% | 21.3% |
| N#C[C@H](O[C@@H]1O[C@H](CO[C@@H]2O[C@H](CO)[C@@H](O)[C@H](O)[C@H]2O)[C@@H](O)[C@H](O)[C@H]1O)c1ccccc1 [Amygdalin] | 0.1% | 20.7% |
| CC[C@@H]1/C=C(\C)C[C@H](C)C[C@H](OC)[C@H]2O[C@@](O)(C(=O)C(=O)N3CCCC[C@H]3C(=O)O[C@H](/C(C)=C/[C@@H]3CC[C@@H](O)[C@H](OC)C3)[C@H](C)[C@@H](O)CC1=O)[C@H](C)C[C@@H]2OC [Ascomycin] | 12.5 | 17.9 |
| CC(C)[C@H]1OC(=O)[C@H](Cc2ccccc2)N(C)C(=O)[C@@H](C(C)C)OC(=O)[C@H](Cc2ccccc2)N(C)C(=O)[C@@H](C(C)C)OC(=O)[C@H](Cc2ccccc2)N(C)C1=O [Beauvericin] | -1.9 | 24.3 |
| C/C=C\c1cc(OC)c(OC)cc1OC [Beta-asarone] | 0.1% | 28.9% |
| CN1CCc2cc3c(cc2[C@H]1[C@@H]1OC(=O)c2c1ccc1c2OCO1)OCO3 [Bicuculline] | -0.3% | 0% |
| C[C@]12CC[C@H](O)C[C@H]1CC[C@@H]1[C@@H]2CC[C@]2(C)[C@@H](c3ccc(=O)oc3)CC[C@]12O [Bufalin] | -7.6% | 19.3% |
| CC[C@H]1CN2CCc3cc(OC)c(OC)cc3[C@@H]2C[C@@H]1C[C@H]1NCCc2cc(O)c(OC)cc21 [Cephaeline (dihydrochloride)] | 7.6% | 17.7% |
| CC(=O)O[C@H]1[C@H]2O[C@]23[C@@H]2CC[C@]4(O)C[C@@H](O)CC[C@]4(C)[C@H]2CC[C@]3(C)[C@H]1c1ccc(=O)oc1 [Cinobufotalin] | 11.4% | 9.3% |
| CC1=C2C(=CO[C@H](C)[C@H]2C)C(O)=C(C(=O)O)C1=O [Citrinin] | -8.1% | 12% |
| COc1cc2c(c(OC)c1OC)-c1ccc(OC)c(=O)cc1[C@@H](NC(C)=O)CC2 [Colchicine] | -3.5 | 13.9 |
| CC(=O)C1=C(O)[C@@H]2[C@H]3c4c[nH]c5cccc(c45)C[C@H]3C(C)(C)N2C1=O [Cyclopiazonic acid] | 0% | 0% |
| CO[C@H]1CC=C2CCN3CCC4=C(CC(=O)OC4)[C@]23C1 [Dihydro-β-erythroidine (hydrobromide)] | -0.7% | 0% |
| COc1cc(CNC(=O)CCCCCCC(C)C)ccc1O [Dihydrocapsaicin] | 7.9 | 7.8 |
| C=C(C)c1cc2cc(C(C)=O)c(O)cc2o1 [Euparin] | 4.4% | 14.2% |
| C=C[C@@H](O)C#CC#C[C@@H](O)/C=C\CCCCCCC [Falcarindiol] | -0.3% | 34% |

| SMILES | OC43 Inhibition rate [1] | 229E Inhibition rate [2] |
| --- | --- | --- |
| CCc1c(Cl)c(O)c(Cl)c(O)c1C(=O)O[C@H]1[C@H](O)[C@H](OC)[C@H](OC/C2=C\C=C\C[C@H](O)/C(C)=C/[C@H](CC)[C@@H](O[C@@H]3OC(C)(C)[C@@H](OC(=O)C(C)C)[C@H](O)[C@@H]3O)/C(C)=C/C(C)=C/C[C@@H]([C@@H](C)O)OC2=O)O[C@@H]1C [Fidaxomicin] | 15 | 27.3 |
| CCCCc1ccc(C(=O)O)nc1 [Fusaric acid] | 0.1% | 12.7% |
| CN[C@H]1[C@H](O)[C@H](O[C@@H]2[C@@H](O)[C@H](O[C@H]3O[C@H](C(C)O)[C@@H](O)[C@H](O)[C@H]3N)[C@@H](N)C[C@H]2N)OC[C@@]1(C)O (stereo partly drawn) [G-418 (disulfate)] | 4.1% | 29.4% |
| C=C[C@]12CN(C)[C@@H]3[C@H]4CO[C@H](C[C@H]41)[C@]1(C(=O)Nc4ccccc41)[C@@H]32 [Gelsemine] | -0.3% | 21.7% |
| CN1C(=O)[C@]23CC4=CC=C[C@H](O)[C@H]4N2C(=O)[C@@]1(CO)SS3 [Gliotoxin] | -0.7% | 0.7% |
| Cc1nccc2c1[nH]c1ccccc12 [Harmane] | 0.2% | 0% |
| COc1ccc2c(c1OC)C(=O)O[C@@H]2[C@H]1c2cc3c(cc2CCN1C)OCO3 [Hydrastine] | -0.2% | 28.1% |
| COc1c2c3c4c(c(OC)c(=O)c5c(O)cc(OC)c(c6c(OC)cc(O)c(c1=O)c63)c54)[C@@H](C(C)=O)[C@@](C)(O)C2 [Hypocrellin A] | -1.7% | 4.6% |
| N[C@H](C(=O)O)c1cc(O)no1 [Ibotenic acid] | 3.8% | 11.4% |
| CC1=C2C(=O)[C@H]3[C@@H](CC=C4C[C@@H](O)CC[C@@]43C)[C@@H]2CC[C@]12O[C@@H]1C[C@H](C)CN[C@H]1[C@H]2C [Jervine] | -0.3% | 3.8% |
| C=C(C)[C@H]1CN[C@H](C(=O)O)[C@H]1CC(=O)O [Kainic acid] | 2.1% | 14.3% |
| CCC(=O)O[C@@H]1CC(=O)O[C@H](C)C/C=C/C=C/[C@H](O)[C@H](C)C[C@H](CC=O)[C@H](O[C@@H]2O[C@H](C)[C@@H](O[C@H]3C[C@@](C)(O)[C@@H](OC(=O)CC)[C@H](C)O3)[C@H](N(C)C)[C@H]2O)[C@H]1OC [Midecamycin] | -1.1 | 12.9 |
| N#C[C@@H](O[C@@H]1O[C@H](CO[C@@H]2O[C@H](CO)[C@@H](O)[C@H](O)[C@H]2O)[C@@H](O)[C@H](O)[C@H]1O)c1ccccc1 [Neoamygdalin] | -0.4% | 63.2% |
| O=C1C=C2C(=CCOC2O)O1 (stereo not drawn) [Patulin] | -3.1% | 3.7% |
| C[C@H]1CCC2N(C1)C[C@H]1C3CC4[C@@H](CC(=O)C5C[C@@H](O)CC[C@@]54C)C3CCC1[C@]2(C)O (stereo partly drawn) [Peiminine] | 1% | 21.8% |
| CC(C)CCC(=O)c1ccoc1 [Perilla ketone] | 2.5% | 9.1% |
| CC(C)C1=CC(=O)[C@@](C)([C@H]2[C@H](O)C[C@@]3(C)[C@@H]4CC=C5[C@@H](CC[C@@H](O[C@@H]6OC[C@@H](O)[C@H](O)[C@H]6O[C@@H]6O[C@@H](C)[C@H](O)[C@@H](O)[C@H]6O)C5(C)C)[C@]4(C)C(=O)C[C@]23C)O1 [Picfeltarraenin IA] | -0.3% | 0% |
| C[C@@H]1O[C@@H](O[C@@H]2C=C3CC[C@@H]4[C@H](CC[C@]5(C)[C@@H](c6ccc(=O)oc6)CC[C@]45O)[C@@]3(C)CC2)[C@H](O)[C@H](O)[C@H]1O [Proscillaridin A] | -0.6% | 21.1% |

Source: paper PMC12431657, “Discovery and mechanistic insights of dibenzoylmethane as a broad spectrum inhibitor of coronavirus” (PLOS Pathogens, 2025)
